Laboratory results from patent US20120039826A1, “COSMETIC COMPOSITION FOR SKIN LIGHTENING” (priority 2009, published 2012).

Tested on: Keratinocytes (HaCaT cells)
Assay: Keratinocyte differentiation assay
Assay type: cell-based
Details: HaCaT cells cultured with active 24 hours, acridine orange, % of control (control = 100)
Procedure: Keratinocyte Differentiation Assay
This is an in vitro cell culture based assay to evaluate the capability of these actives to alter cell differentiation process. Keratinocytes (HaCaT cells—5×10^4 cells/well) were grown in 24 well plates for 24 hours. These proliferating keratinocytes were further cultured with actives for 24 hours. Cells were then washed with PBS and stained with acridine orange in PBS (Sigma Chemical Co, USA). Cells were washed 15 minutes later and viewed using an epi-fluorescent microscope (Olympus BX 50), at 20× magnification, using appropriate excitation and barrier filters, to simultaneously view red and green fluorescence (excitation: 460 nm and emission >515 nm). The entire plate was scanned and the percentage of differentiated keratinocytes (cells with red fluorescence evenly distributed within the cytoplasm) was estimated. Data were represented as % of control. Higher % values indicate increased cell differentiation.

| Compound | % Differentiation (concentration 0.002%) [%] | % Differentiation (concentration 0.01%) [%] |
| --- | --- | --- |
| CC(=O)O.N [Ammonium acetate] | 175 | – |
| CC(=O)[O-].CC(=O)[O-].[Mg+2] [Magnesium acetate] | 250 | 237 |
| O=C([O-])C(O)C(O)C(=O)[O-].[Na+].[Na+] (stereo not drawn) [Na tartarate (c4), Na tartarate] | – | 165 |
| CC(=O)[O-].[Na+] [Sodium acetate] | 175 | 168 |
